The values that follow come from ChEMBL document CHEMBL1125480, “Studies on antidiabetic agents. 11. Novel thiazolidinedione derivatives as potent hypoglycemic and hypolipidemic agents” (1992).

What all share (assay type): functional
Assay [1] is filed under the species Mus musculus. As to the kind of experiment: Maximum reduction in blood glucose levels in KKA mice at a dosage of 0.005% in diet.
For assay [2], the species on record is Mus musculus. As to the kind of experiment: Maximum reduction in blood glucose levels in KKA mice at a dosage of 0.001% in diet.
The species named for assay [3] is Mus musculus. The experiment in a line: Maximum reduction in plasma triglyceride levels in KKA mice at a dosage of 0.001% in diet.
The species named for assay [4] is Mus musculus. The experiment in a line: Effective dose to reduce 25% of triglyceride levels in plasma.
Assay [5] is filed under the species Mus musculus. The experiment in a line: Maximum reduction in plasma triglyceride levels in KKA mice at a dosage of 0.005% in diet.
The species named for assay [6] is Mus musculus. As to the kind of experiment: Effective dose to reduce 25% of glucose levels in blood.

`Cc1nc(CCOc2ccc(CC3SC(=O)NC3=O)cc2)cs1` (stereo not drawn): the Reduction in the assay filed under Mus musculus [1] stood at 42%; in the assay listed under Mus musculus [2], 17%; in the assay listed under Mus musculus [3] it was 15%; in the assay listed under Mus musculus [5] it was 52%. For the same molecule, the ED25 in the assay listed under Mus musculus [4] came to 4 mg/kg/day; in the assay listed under Mus musculus [6] (Mus musculus, Blood), 4 mg/kg/day.

Consider `Cc1oc(-c2ccc(O)cc2)nc1CCOc1ccc(CC2SC(=O)NC2=O)cc1` (stereo not drawn), for which the Reduction in the assay filed under Mus musculus [2] turned out to be 22%; in the assay filed under Mus musculus [3], 26%.

As for `O=C1NC(=O)C(Cc2ccc(OCc3nc4ccccc4s3)cc2)S1` (stereo not drawn), the Reduction in the assay filed under Mus musculus [1] and in the assay filed under Mus musculus [5] was 43% throughout.

Turning to `O=C1NC(=O)C(Cc2ccc(OCCc3nc(-c4ccccc4)oc3CO)cc2)S1` (stereo not drawn), the Reduction in the assay filed under Mus musculus [1] is on record as 31%; in the assay listed under Mus musculus [5], 39%.

For the molecule `Cc1nc(COc2ccc(CC3SC(=O)NC3=O)cc2)co1` (stereo not drawn), the Reduction worked out at 19% in the assay listed under Mus musculus [2] and 1% in the assay filed under Mus musculus [5].

Take `Cc1oc(C2CCCCC2)nc1CCOc1ccc(CC2SC(=O)NC2=O)cc1` (stereo not drawn): the Reduction came to 52% in the assay listed under Mus musculus [1], 51% in the assay listed under Mus musculus [2], 58% in the assay listed under Mus musculus [3] and 71% in the assay filed under Mus musculus [5]. Further, the ED25 in the assay filed under Mus musculus [4] amounted to 0.6 mg/kg/day; in the assay filed under Mus musculus [6] (Mus musculus, Blood) it was 0.2 mg/kg/day.

On to `O=C1NC(=O)C(Cc2ccc(OCCc3coc(C4CCCCC4)n3)cc2)S1` (stereo not drawn), for which the values for the Reduction in the assay listed under Mus musculus [2] and in the assay filed under Mus musculus [3] were 31% and 14%, respectively. The ED25 in the assay listed under Mus musculus [4] was 9 mg/kg/day; in the assay filed under Mus musculus [6] (Mus musculus, Blood), 1 mg/kg/day.

On to `Cc1oc(-c2ccccc2)nc1CCOc1ccc(CC2SC(=O)NC2=O)cc1` (stereo not drawn), for which the Reduction in the assay filed under Mus musculus [1] amounted to 59%; in the assay listed under Mus musculus [2], 55%; in the assay listed under Mus musculus [3] it was 67%; in the assay filed under Mus musculus [5], 66%. Moreover, the ED25 in the assay listed under Mus musculus [4] is 0.09 mg/kg/day; in the assay listed under Mus musculus [6] (Mus musculus, Blood), 0.05 mg/kg/day.

As for `Cc1nc(CCOc2ccc(CC3SC(=O)NC3=O)cc2)co1` (stereo not drawn), the Reduction in the assay filed under Mus musculus [1] was 37%; in the assay filed under Mus musculus [2], 13%; in the assay filed under Mus musculus [3] it was 20%; in the assay filed under Mus musculus [5], 42%. In addition, the ED25 in the assay filed under Mus musculus [4] turned out to be 3 mg/kg/day; in the assay filed under Mus musculus [6], 5 mg/kg/day.

Take `O=C1NC(=O)C(Cc2ccc(OCCc3csc(C4CCCCC4)n3)cc2)S1` (stereo not drawn): the Reduction in the assay listed under Mus musculus [2] came to 43%; in the assay filed under Mus musculus [3], 33%. Also, the ED25 in the assay filed under Mus musculus [4] came to 3 mg/kg/day; in the assay filed under Mus musculus [6] (Mus musculus, Blood), 0.8 mg/kg/day.

In the case of `Cc1oc(-c2ccccc2)nc1COc1ccc(/C=C2\SC(=O)NC2=O)cc1`, the Reduction is 37% in the assay filed under Mus musculus [1] and 40% in the assay filed under Mus musculus [5].

Regarding `Cc1oc(-c2ccccc2Cl)nc1CCOc1ccc(CC2SC(=O)NC2=O)cc1` (stereo not drawn), the results for the Reduction in the assay listed under Mus musculus [2] and in the assay filed under Mus musculus [3] were 52% and 57%, respectively.

In the case of `Cc1cccc(-c2nc(CCOc3ccc(CC4SC(=O)NC4=O)cc3)c(C)o2)c1` (stereo not drawn), the Reduction amounted to 49% in the assay listed under Mus musculus [2] and 61% in the assay filed under Mus musculus [3]. The ED25 in the assay listed under Mus musculus [4] is 0.06 mg/kg/day; in the assay filed under Mus musculus [6] (Mus musculus, Blood), 0.05 mg/kg/day.

As to `CCc1oc(C)nc1CCOc1ccc(CC2SC(=O)NC2=O)cc1` (stereo not drawn), the Reduction was determined as 46% in the assay filed under Mus musculus [1], 15% in the assay listed under Mus musculus [2], 0% in the assay filed under Mus musculus [3] and 45% in the assay listed under Mus musculus [5]. In addition, the ED25 was 5 mg/kg/day in the assay listed under Mus musculus [4] and 3 mg/kg/day in the assay filed under Mus musculus [6] (Mus musculus, Blood).

On to `Cc1oc(-c2cccs2)nc1CCOc1ccc(/C=C2\SC(=O)NC2=O)cc1`, for which the Reduction in the assay listed under Mus musculus [1] amounted to 55%; in the assay listed under Mus musculus [5] it was 57%.

On to `Cc1oc(-c2ccccc2)nc1CCOc1ccc(/C=C2\SC(=O)NC2=O)cc1`, for which the Reduction in the assay listed under Mus musculus [2] came out at 55%; in the assay filed under Mus musculus [3], 65%. In addition, the ED25 in the assay filed under Mus musculus [4] is 0.2 mg/kg/day; in the assay filed under Mus musculus [6] (Mus musculus, Blood), 0.4 mg/kg/day.

As for `COc1ccc(-c2nc(CCOc3ccc(CC4SC(=O)NC4=O)cc3)c(C)o2)cc1OC` (stereo not drawn), the Reduction is 52% in the assay listed under Mus musculus [2] and 54% in the assay listed under Mus musculus [3]. Also, the ED25 in the assay filed under Mus musculus [4] was found to be 0.6 mg/kg/day; in the assay filed under Mus musculus [6] (Mus musculus, Blood) it was 0.5 mg/kg/day.

Turning to `CC1(COc2ccc(CC3SC(=O)NC3=O)cc2)CCCCC1` (stereo not drawn) [CIGLITAZONE], the ED25 was 25 mg/kg/day in the assay listed under Mus musculus [4] and 31 mg/kg/day in the assay filed under Mus musculus [6] (Mus musculus, Blood).

As to `CCc1ccc(CCOc2ccc(CC3SC(=O)NC3=O)cc2)nc1.Cl` (stereo not drawn) [PIOGLITAZONE HYDROCHLORIDE], the ED25 is 6 mg/kg/day in the assay listed under Mus musculus [4] and 6 mg/kg/day in the assay filed under Mus musculus [6] (Mus musculus, Blood).
